Data on three compounds can be found in patent US20240092758A1, “IMIDAZOLO INDAZOLE COMPOUNDS AS JAK INHIBITORS” (Theravance Biopharma R&D IP, LLC, priority 2021, published 2024).

The target in one series is JAK1 (Homo sapiens (Human), UniProt P23458). Description: Biochemical JAK kinase assay (LanthaScreen), JAK1. As to conditions: read-out: JAK1 pKi (converted). The procedure, abridged: (§1)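 LanthaScreen format: phospho-STAT1 (pTyr701) detected with 2 nM Tb antibody after 10 mM EDTA quench. Kinase step used Km-level ATP and 200 nM STAT1 peptide, 1 h at ambient after 1 h pre-incubation. Inhibition fitted to IC50, reported as pKi.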
Chain of JAK1 (P23458 whole entry): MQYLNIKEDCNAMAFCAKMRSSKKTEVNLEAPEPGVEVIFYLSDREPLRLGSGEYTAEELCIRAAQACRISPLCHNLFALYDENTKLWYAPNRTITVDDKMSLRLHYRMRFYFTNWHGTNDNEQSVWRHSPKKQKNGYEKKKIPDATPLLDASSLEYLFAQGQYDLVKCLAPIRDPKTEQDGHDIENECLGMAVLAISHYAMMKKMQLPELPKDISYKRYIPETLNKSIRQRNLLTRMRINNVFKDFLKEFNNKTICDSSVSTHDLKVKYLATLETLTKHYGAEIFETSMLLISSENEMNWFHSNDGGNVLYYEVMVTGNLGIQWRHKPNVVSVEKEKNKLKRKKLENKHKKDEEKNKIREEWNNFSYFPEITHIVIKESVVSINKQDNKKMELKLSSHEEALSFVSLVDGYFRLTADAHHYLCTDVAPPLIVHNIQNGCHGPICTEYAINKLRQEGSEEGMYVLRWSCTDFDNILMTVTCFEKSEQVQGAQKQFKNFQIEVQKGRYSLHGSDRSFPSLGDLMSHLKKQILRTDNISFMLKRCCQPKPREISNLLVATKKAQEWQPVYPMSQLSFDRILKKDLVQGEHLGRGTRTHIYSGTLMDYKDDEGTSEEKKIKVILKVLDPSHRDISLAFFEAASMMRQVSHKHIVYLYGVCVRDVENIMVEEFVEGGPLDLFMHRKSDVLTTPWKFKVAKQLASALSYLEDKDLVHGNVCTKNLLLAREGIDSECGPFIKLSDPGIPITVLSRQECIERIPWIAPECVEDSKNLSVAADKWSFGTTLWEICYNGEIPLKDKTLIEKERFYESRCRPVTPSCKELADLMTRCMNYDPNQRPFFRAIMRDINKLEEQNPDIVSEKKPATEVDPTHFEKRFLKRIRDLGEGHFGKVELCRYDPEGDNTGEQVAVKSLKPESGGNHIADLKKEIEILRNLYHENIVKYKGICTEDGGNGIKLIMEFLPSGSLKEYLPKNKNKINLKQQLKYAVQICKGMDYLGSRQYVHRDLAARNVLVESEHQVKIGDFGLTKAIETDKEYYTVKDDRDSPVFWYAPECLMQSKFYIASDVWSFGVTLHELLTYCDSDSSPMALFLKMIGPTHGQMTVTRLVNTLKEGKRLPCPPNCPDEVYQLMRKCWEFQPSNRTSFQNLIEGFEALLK

For a further series, the target named is JAK2 (Homo sapiens (Human), UniProt O60674). Description: Biochemical JAK kinase assay (LanthaScreen), JAK2. As to conditions: read-out: JAK2 pKi (converted). A digest of the protocol: as §1
Chain of JAK2 (O60674 whole entry): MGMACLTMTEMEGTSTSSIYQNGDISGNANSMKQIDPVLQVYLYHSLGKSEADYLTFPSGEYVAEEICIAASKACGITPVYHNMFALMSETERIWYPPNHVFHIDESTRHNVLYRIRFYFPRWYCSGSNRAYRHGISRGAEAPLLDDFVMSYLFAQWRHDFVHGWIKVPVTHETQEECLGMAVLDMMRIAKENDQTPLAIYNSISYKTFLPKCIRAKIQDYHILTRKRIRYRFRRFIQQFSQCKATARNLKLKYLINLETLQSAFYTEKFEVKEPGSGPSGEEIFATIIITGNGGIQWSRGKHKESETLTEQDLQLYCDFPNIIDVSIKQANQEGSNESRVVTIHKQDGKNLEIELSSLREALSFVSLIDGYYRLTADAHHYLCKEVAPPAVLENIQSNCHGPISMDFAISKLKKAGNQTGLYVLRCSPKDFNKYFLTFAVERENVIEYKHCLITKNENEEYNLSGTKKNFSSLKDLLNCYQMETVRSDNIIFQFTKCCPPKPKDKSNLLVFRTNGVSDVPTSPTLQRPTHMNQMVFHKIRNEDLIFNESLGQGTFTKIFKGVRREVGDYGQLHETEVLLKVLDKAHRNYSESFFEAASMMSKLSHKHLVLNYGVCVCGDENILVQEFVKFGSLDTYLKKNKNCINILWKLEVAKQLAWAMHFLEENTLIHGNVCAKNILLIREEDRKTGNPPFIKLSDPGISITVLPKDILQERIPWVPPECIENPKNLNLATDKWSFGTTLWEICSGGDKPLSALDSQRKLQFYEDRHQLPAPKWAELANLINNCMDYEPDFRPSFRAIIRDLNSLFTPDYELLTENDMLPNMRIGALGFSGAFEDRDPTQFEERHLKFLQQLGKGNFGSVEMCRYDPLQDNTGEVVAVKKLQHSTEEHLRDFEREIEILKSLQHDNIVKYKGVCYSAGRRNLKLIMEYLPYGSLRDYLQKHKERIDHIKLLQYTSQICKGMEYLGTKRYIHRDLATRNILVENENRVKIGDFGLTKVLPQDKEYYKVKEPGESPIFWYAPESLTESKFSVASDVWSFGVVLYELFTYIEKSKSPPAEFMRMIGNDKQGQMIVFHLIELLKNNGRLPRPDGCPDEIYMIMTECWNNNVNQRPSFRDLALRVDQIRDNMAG
The next series deals with JAK3 (Homo sapiens (Human), UniProt P52333). Description: Biochemical JAK kinase assay (LanthaScreen), JAK3. As to conditions: read-out: JAK3 pKi (converted). A digest of the protocol:
as §1

Series [1] concerns IL-13 induced STAT6 phosphorylation in BEAS-2B human lung epithelial cells. Nature of the series: Cellular JAKI potency assay (BEAS-2B). The class given is cell-based. As to conditions: Homo sapiens, BEAS-2B, BEAS-2B cells, read-out: BEAS2B pIC50 (converted). A digest of the protocol:
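AlphaLISA SureFire detection of Tyr641 pSTAT6 in lysates gave IC50s (4-parameter fit, expressed as pIC50). Cells: human BEAS-2B, exposed 1 h at 37 °C to compound dose series at 0.1% DMSO, then 30 min to IL-13 added at 80 ng/mL in HEPES-buffered HBSS with BSA.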

The nature of series [2]: Pharmacokinetics in plasma and lung in mouse after oral aspiration administration. The class given is in vivo. As to conditions: male CD1 mice; for Lung Tissue AUC(0-24) / AUC(0-t): 0.2 mg/mL, two 25 μL increments; for Lung Tissue:Plasma AUC ratio: lung AUC to plasma AUC; for AUC(0-t): mouse, inhaled or intranasal, 0.01 mg/mouse, plasma, read-out: Plasma AUC(0-24). A digest of the protocol:
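Male CD1 mice given 0.2 mg/mL compound in 20% propylene glycol/pH 4 citrate buffer, two 25 μL increments by oral aspiration into the trachea under isoflurane. Plasma and lung homogenate sampled 0.167–24 hr and measured by LC-MS/MS. Non-compartmental analysis gave AUC(0-inf); lung-to-plasma ratio from lung (μg*hr/g) over plasma (μg*hr/mL) AUC.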

Chain of JAK3 (P52333 whole entry): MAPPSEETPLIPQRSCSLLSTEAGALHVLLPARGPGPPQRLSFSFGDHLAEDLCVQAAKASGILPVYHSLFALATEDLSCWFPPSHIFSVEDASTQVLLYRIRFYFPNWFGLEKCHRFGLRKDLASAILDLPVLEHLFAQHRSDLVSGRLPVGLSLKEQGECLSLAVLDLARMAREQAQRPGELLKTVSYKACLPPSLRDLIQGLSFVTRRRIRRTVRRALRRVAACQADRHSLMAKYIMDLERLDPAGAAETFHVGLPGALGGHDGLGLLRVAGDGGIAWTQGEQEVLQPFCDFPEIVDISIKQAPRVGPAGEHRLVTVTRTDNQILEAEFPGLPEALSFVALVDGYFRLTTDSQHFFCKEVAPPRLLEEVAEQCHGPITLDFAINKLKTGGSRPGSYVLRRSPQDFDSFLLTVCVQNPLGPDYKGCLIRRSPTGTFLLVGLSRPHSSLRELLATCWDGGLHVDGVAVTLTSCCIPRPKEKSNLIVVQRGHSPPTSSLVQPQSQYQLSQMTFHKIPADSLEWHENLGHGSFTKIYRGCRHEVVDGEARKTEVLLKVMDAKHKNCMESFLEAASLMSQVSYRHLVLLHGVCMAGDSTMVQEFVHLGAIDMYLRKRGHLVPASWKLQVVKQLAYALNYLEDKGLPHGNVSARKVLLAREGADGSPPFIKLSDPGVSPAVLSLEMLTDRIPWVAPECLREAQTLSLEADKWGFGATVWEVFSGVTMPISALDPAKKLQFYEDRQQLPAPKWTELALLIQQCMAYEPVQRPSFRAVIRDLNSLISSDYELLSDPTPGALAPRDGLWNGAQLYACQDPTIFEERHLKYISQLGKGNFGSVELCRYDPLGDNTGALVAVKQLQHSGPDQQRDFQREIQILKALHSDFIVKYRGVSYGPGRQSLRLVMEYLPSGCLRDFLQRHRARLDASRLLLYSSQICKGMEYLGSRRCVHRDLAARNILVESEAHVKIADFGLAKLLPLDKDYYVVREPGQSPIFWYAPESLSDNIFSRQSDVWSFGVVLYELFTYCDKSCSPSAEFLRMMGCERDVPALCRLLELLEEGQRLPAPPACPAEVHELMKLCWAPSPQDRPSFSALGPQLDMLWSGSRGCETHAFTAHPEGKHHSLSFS

Take `CCc1cc(O)ccc1-c1ccc2c(-c3nc(C4=CCNC4)c[nH]3)n[nH]c2c1F` [Compound 1, 4-(3-(4-(2,5-dihydro-1H-pyrrol-3-yl)-1H-imidazol-2-yl)-7-fluoro-1H-indazol-6-yl)-3-ethylphenol]: the Ki at JAK1 is 0.1 to 1 nM. For the same compound, on JAK2, the Ki is 0.1 to 1 nM. Moreover, on JAK3, the Ki was 0.1 to 1 nM. In series [1], the IC50 is 3.16 to 10 nM. Besides, in series [2], the “Lung Tissue AUC(0-24)” value was “B (B denotes a value between 50 and 100)”; the “Lung Tissue:Plasma AUC ratio” value was “C (C denotes a ratio between 100 and 200)”; the AUC(0-t) lay in the range of 500 to 1000 ng·h/mL.
In the case of `CCc1cc(O)ccc1-c1ccc2c(-c3nc(C4=CCNCC4)c[nH]3)n[nH]c2c1` [Compound 3, 3-ethyl-4-(3-(4-(1,2,3,6-tetrahydropyridin-4-yl)-1H-imidazol-2-yl)-1H-indazol-6-yl)phenol], at JAK1, the Ki was 0.1 to 1 nM. Besides, the Ki at JAK2 was 0.1 to 1 nM. Besides, the Ki at JAK3 was 1 to 10 nM. The IC50 in series [1] was 3.16 to 10 nM. Moreover, in series [2], the “Lung Tissue AUC(0-24)” value is “A (For the Lung Tissue AUC(0-24), A denotes a value between 100 and 200)”; the “Lung Tissue:Plasma AUC ratio” value is “C (C denotes a ratio between 100 and 200)”; the AUC(0-t) is 500 to 1000 ng·h/mL.
Regarding `CCc1cc(O)ccc1-c1ccc2c(-c3nc(C4=CCNCC4)c[nH]3)n[nH]c2c1F` [Compound 2, 3-ethyl-4-(7-fluoro-3-(4-(1,2,3,6-tetrahydropyridin-4-yl)-1H-imidazol-2-yl)-1H-indazol-6-yl)phenol], the Ki at JAK1 is 0.1 to 1 nM. Further, the Ki on JAK2 was 0.1 to 1 nM. Further, the Ki at JAK3 was 1 to 10 nM. Besides, in series [1], the IC50 is 3.16 to 10 nM. For the same compound, in series [2], the “Lung Tissue AUC(0-24)” value is “B (B denotes a value between 50 and 100)”; the “Lung Tissue:Plasma AUC ratio” value was “C (C denotes a ratio between 100 and 200)”; the AUC(0-t) lay within 500 to 1000 ng·h/mL.
